From US7485659B2, “Anticancer compositions, and methods of making and using the same” (Faustus Forschungs CIE, Translational Cancer Research GmbH, priority 2001, dated 2009)

Tests used:
[1] = tested on: human line of tumor cells CH1 (ovarian carcinoma); assay: MTT assay, continuous 96 hour exposure, CH1; format: cell-based
Protocol: (§1) The cytotoxic effects of KP 1019 and combinations of KP 1339 and indazol in different molar ratios (administered as solution in the conventional cell culture medium MEM, supplemented with 10% fetal bovine serum, without the addition of organic solvents or dissolving agents) have been comparatively investigated on the human line of tumor cells SW480 (colon carcinoma) and CH1 (ovarian carcinoma) in the MTT assay under the application of a continuous 96 hour exposure to the active substance.

[2] = tested on: human line of tumor cells SW480 (colon carcinoma); assay: MTT assay, continuous 96 hour exposure, SW480; format: cell-based
Protocol: as §1

[3] = tested on: stem cells of human solid tumors and continuous human tumor cell lines; assay: In vitro antiproliferative experiments on stem cells of human solid tumors (nude mice xenografts) and continuous human tumor cell lines; format: cell-based; settings: stem cells of human solid tumors bred as nude mice xenografts
Water-solubility = format: physicochemical

Row | SMILES | concentration at which a cytotoxic effect is exhibited [1] [µM] | concentration at which a cytotoxic effect is exhibited [2] [µM] | tumor inhibiting (cytotoxic) activity compared with KP 1019 ([1]; MEM + 10% fetal bovine serum) | antiproliferative effectiveness in vitro compared with KP 1019 [3] | tumor inhibiting (cytotoxic) activity compared with KP 1019 ([2]; MEM + 10% fetal bovine serum) | water-solubility (in words) (Water-solubility) | water-solubility relative to KP 1019 (Water-solubility; compared with KP 1019)
1 | c1ccc2[nH]ncc2c1 [Indazol, indazol, reference compound] | > 1000 | > 1000 | – | – | – | – | –
2 | [Cl][Ru-]([Cl])([Cl])[Cl].[Na+].c1ccc2[nH]ncc2c1.c1ccc2[nH]ncc2c1 [KP 1339, sodium trans-[RuCl4(ind)2]] | – | – | three to four times less effective than KP 1019 | clearly weaker antiproliferative effectiveness than KP 1019 | three to four times less effective than KP 1019 | easily water-soluble | more than thirty times higher than KP 1019
